From patent US9707267B2, “Beta-turn peptidomimetic cyclic compounds for treating dry eye” (Mimetogen Pharmaceuticals, Inc., priority 2008, dated 2017)

Columns and labels:
[1] = tested on: rat conjunctival goblet cells; assay: Glycoconjugate secretion from rat conjunctival goblet cells, ELLA (Example 1); type: cell-based; conditions: 2 hours, mean±sem
Experimental: Cells derived from the explants were grown in RPMI 1640 supplemented with 10% fetal bovine serum (FBS) and penicillin (100 U/mL)/streptomycin (100 μg/mL) at 37° C. in a humidified 5% CO2-atmosphere for seventy-two hours. Contaminating nongoblet cells were removed by scraping them from the plate. During this time, goblet cells migrated from the pieces and began to proliferate. After one week, the goblet cells were trypsinized and plated in twenty-four well culture plates with RPMI-1640 media supplemented with 10% FBS.
To measure glycoconjugate secretion, the conjunctival goblet cells were grown to confluence and were serum deprived for two hours before addition of nerve growth factor (NGF), carbachol (Cch), compound D3, compound 3Aa and compound 3Ak for two hours. Compounds D3, 3Aa and 3Ak were administered at concentrations of 30 μm (micromolar), 10 μM, 1 μM and 0.3 μM. The vehicle used to dissolve the compounds, dimethyl sulfoxide (DMSO) was also included. DMSO was used as the basal control for the 30 μM concentration of compound, which was at 0.1% (v/v). The cholinergic agonist carbachol (Cch), added at 100 μM (micromolar), was a positive control for glycoconjugate secretion. The amount of glycoconjugate secreted into the media was measured by enzyme-linked lectin assay (ELLA). The media were collected and analyzed for amount of the lectin-detectable glycoconjugates, including mucins. The amount of secretion was measured by using the lectin UEA-I which is specific for rat conjunctival goblet cell mucins. Biotinylated UEA-I lectin and alkaline phosphatase-labeled streptavidin were used as described in Rios, J. D., et al., “Role of Neurotrophins and Neurotrophin Receptors in Rat Conjunctival Goblet Cell Secretion and Proliferation, Ophthalmology & Visual Science, 48: 1543-1551 (2007), the entire content of which is incorporated herein by reference. The cells were removed and sonicated, and the cell homogenate was analyzed for the total amount of protein by using the Bradford protein assay. […] Glycoconjugate secretion was expressed as the increase (x-fold) over basal.
Data for CGC glycoconjugate secretion and proliferation were expressed as the increase (x-fold) above basal value, which was standardized to 1.0. For example, for the 0.3 μM (micromolar), 1 μM and 10 μM doses, the CGC glycoconjugate secretion and proliferation were expressed as test compound over untreated cells. For the 30 μM dose, the CGC glycoconjugate secretion and proliferation were expressed as test compound over DMSO untreated cells. Results are expressed as the mean±sem.

[2] = tested on: cultured rat conjunctival goblet cells; assay: Goblet cell glycoconjugate secretion, ELLA with UEA-1 (Example 2); type: cell-based; conditions: 2 hours; for Glycoconjugate Secretion, Mean ± sem: mean of rats; for Glycoconjugate Secretion, Mean ± SD: mean of rats/plates
Experimental: The culturing of conjunctival goblet cells from explant cultures was as previously described in Shatos, M. et al., “Isolation, Characterization, and Propagation of Rat Conjunctival Goblet Cells In Vitro,” IOVS 42:1455-1464 (2001), the entire content of which is incorporated herein by reference. The tissue was finely minced and individual pieces were anchored onto scored 6-well cultures dishes in 0.5 mL of complete RPMI-1640 (supplemented with 10% FBS, 2 mM glutamine and 100 μg/mL penicillin-streptomycin) and incubated at 37° C. in a humidified 5% CO2-atmosphere. Explant cultures were refed every 2 days. Within a few days, goblet cells migrated from the pieces and began to proliferate. After approximately one week, the tissue plugs were removed and the goblet cells were allowed to grow to confluence. Cells were passaged once by trypsinization of adherent cells with 0.05% trypsin-0.53 mM EDTA (pH 7.4), and plated in 8-well Laboratory Tek chamber slides (histochemistry) or in 96 well (proliferation), 24 well (secretion), or 6 well (western blots) culture plates with complete RPMI-1640 media.
To measure cell secretion, goblet cells were grown to confluence and then serum depleted for 2 hours prior to stimulation. Cells were incubated with compound D3 at 2, 10, and 50 μM, NGF at 0.1, 1 and 10 nM, and PMA at 0.1, 1, and 10 nM in serum-free RPMI for 2 hours. Goblet cell secretion was measured using an enzyme-linked lectin assay (ELLA). Briefly, an aliquot of the cell culture supernatant was transferred to a 96-well polystyrene microtiter plate in triplicate (Corning Life Sciences #2592, Fisher Scientific, Nepean, Ont). A dilution series of bovine submaxillary mucin (BSM) (Sigma, St. Louis, Mo.) was included on each plate as the standard (standard curve data and data showing that detection of BSM is linear between 0.003 and 0.1 μg not shown). The plates were coated by evaporation at 37° C. overnight. After, the plates were washed three times with wash buffer [PBS containing 0.3% BSA, 0.05% Tween-20] then blocked for nonspecific binding with PBS containing 3% BSA and 0.05% Tween-20 at 37° C. for 1 hour. The wells were rinsed three times in wash buffer, and then incubated in 2 μg/mL biotinylated UEA-1 diluted in wash buffer (Vector Labs, Burlingame, Calif.) at 37° C. for 1 hour. The wells were rinsed three times in wash buffer, and then incubated in 1 μg/mL HRP-conjugated neutravidin diluted in wash buffer (Pierce, Rockford, Ill.) at 37° C. for 1 hour. After the wells were rinsed three times in wash buffer, the color development was performed with TMB (Promega, Madison, Wis.) and stopped with 0.5N Sulfuric acid. The absorbance was read at 450 nm on a Benchmark Plus (Biorad). The goblet cells remaining in the culture wells were either scraped in RIPA buffer [1% TritonX-100, 20 mM Tris-HCl pH 7.5, 150 mM NaCl, 1.5 mM MgCl2, 1% Na deoxycholate, 1 mM EGTA, 1 mM EDTA, 0.1% SDS, 10% glycerol, 1 mM Na vanadate, 10 mM Na fluoride, 10 mM Na pyrophosphate, complete mini EDTA-free protease inhibitors (Roche Applied Science, Indianapolis, Ind.)] or 1M Tris-buffer (pH 7.5), collected and sonicated. The amount of protein in the cell homogenate was analyzed using the Bradford protein assay kit using a dilution series of bovine serum albumin (BSA) as the standard (BioRad, Montreal, PQ). Glycoconjugate secretion was normalized to total protein in the homogenate. Data was then expressed as fold increase above basal. […]

[3] = tested on: p42/44 MAPK; assay: Activation of p42/44 MAPK in goblet cells, Western blot (Example 2); type: cell-based, rat; conditions: 100 nM, 5 minutes, positive control
Experimental: The activation of p42/44 MAPK was examined using Western blot techniques. Goblet cells were serum starved in serum-free RPMI for 4-6 hrs prior to the addition of PMA (100 nM), NGF (1 or 10 nM), or MIM-D3 (10 or 50 μM) for 5 minutes at 37° C. After, cells were rinsed once in cold PBS, scraped in 100 μL of 1×SDS-PAGE sample buffer [62.5 mM Tris-HCl pH 6.8, 10% glycerol, 2% SDS, 5% β-mercaptoethanol, 0.02 mg/mL bromophenol blue] and sonicated for 20 minutes. The homogenates were centrifuged at 14,900 g for 15 min at 4° C. Proteins in a […] of the supernatant were separated by SDS-PAGE (8% acrylamide gels) and transferred to nitrocellulose membranes. The membranes were blocked for 2 hours in 5% non-fat dried milk in buffer containing 20 mM Tris-HCl, pH 8.0, 150 mM NaCl, and 0.01% Tween-20 (TBST). The blots were then probed with an antibody directed against the phosphorylated form of MAPK1/2 (Calbiochem, San Diego, Calif.) at 0.1 μg/mL in TBST containing 5% BSA overnight at 4° C., followed by a 1 hour incubation in HRP-conjugated secondary anti-mouse antibody (Sigma, St. Louis, Mo.) at room temperature in TBST containing 5% non-fat dried milk. Immunoreactive bands were visualized using the enhanced chemiluminescence method (Perkin Elmer, Waltham, Mass.). The blots were stripped at 55° C. for 30 minutes in stripping buffer [62.5 mM Tris-HCl pH 6.8, 2% SDS, 0.1M β-mercaptoethanol] followed by re-probing with an antibody directed against actin (1:5000 dilution, Sigma, St. Louis, Mo.) in TBST containing 5% non-fat dried milk and incubation in HRP-conjugated secondary anti-rabbit antibody. The immunoreactive bands were digitally scanned on an EPSON scanner and analyzed using NIH ImageJ v1.38x. The amount of phosphorylated MAPK in each sample was standardized to the amount of total actin protein in the sample.
To determine if compound D3 and NGF induced glycoconjugates secretion via activation of the MAPK pathway, cultured goblet cells from 3 independent rats were stimulated by 10 and 50 μM compound D3, 1 and 10 nM NGF or PMA (100 nM, the positive control) for 5 minutes and MAPK activity was measured by western blot analysis. A representative western blot from 3 independent rat goblet cell cultures is shown in FIG. 9, and the quantification is shown in FIG. 10. There was a statistically significant effect of treatment on MAPK activation (P<0.0001). Compound D3 increased MAPK activity above basal by 2.5±0.3 fold at 10 μM and 2.2±0.5 fold at 50 μM and NGF increased MAPK activity by 2.8±0.5 at 1 nM (P<0.05) and 1.7±0.2 at 10 nM.

## C[N+](C)(C)CCOC(N)=O [Cch, carbachol, reference compound]
[1]; 100 μM, positive control
  CGC glycoconjugate secretion: 1.3±0.3 fold above basal

## CC[C@H](C)[C@@H]1NC(=O)c2cc(N)ccc2OCc2ccc(C(N)=O)cc2NC(=O)[C@H](CCCCN)NC1=O [Compound 3Aa]
[1]; 0.3 μM
  CGC glycoconjugate secretion: 2.1±0.3 fold above basal
[1]; 1 μM
  CGC glycoconjugate secretion: 1.6±0.3 fold above basal
[1]; 10 μM
  CGC glycoconjugate secretion: 1.7±0.4 fold above basal
[1]; 30 μM, over DMSO basal
  CGC glycoconjugate secretion: 2.1±0.7 fold above basal

## N=C(N)NCCC[C@@H]1NC(=O)c2cc(N)ccc2OCc2ccc(C(N)=O)cc2NC(=O)CNC1=O [Compound 3Ak]
[1]; 0.3 μM
  CGC glycoconjugate secretion: 1.4±0.3 fold above basal
[1]; 1 μM
  CGC glycoconjugate secretion: 1.1±0.3 fold above basal
[1]; 10 μM
  CGC glycoconjugate secretion: 1.2±0.1 fold above basal
[1]; 30 μM, over DMSO basal
  CGC glycoconjugate secretion: 1.1±0.3 fold above basal

## CCCCCCCCCCCCCC(=O)O[C@@H]1[C@@H](C)[C@@]2(O)[C@@H](C=C(CO)C[C@]3(O)C(=O)C(C)=C[C@@H]23)[C@@H]2C(C)(C)[C@]12OC(C)=O [PMA, Phorbol-12-myristate-13-acetate, reference compound]
[2]; 0.1 nM, Rat 2
  Glycoconjugate Secretion: 1.39 Fold increase above basal
[2]; 0.1 nM, Rat 2 Plate 2
  Glycoconjugate Secretion: 3.2 μg glycoconjugate/mg total protein
[2]; 0.1 nM, Rat 3
  Glycoconjugate Secretion: 1.41 Fold increase above basal
[2]; 0.1 nM, Rat 3 Plate 1
  Glycoconjugate Secretion: 6.9 μg glycoconjugate/mg total protein
[2]; 0.1 nM
  Glycoconjugate Secretion, Mean ± sem: 1.40 ± 0.01 Fold increase above basal
  Glycoconjugate Secretion, Mean ± SD: 5.1 ± 2.6 μg glycoconjugate/mg total protein
[2]; 1 nM, Rat 1
  Glycoconjugate Secretion: 1.05 Fold increase above basal
[2]; 1 nM, Rat 1 Plate 2
  Glycoconjugate Secretion: 4.1 μg glycoconjugate/mg total protein
[2]; 1 nM, Rat 2
  Glycoconjugate Secretion: 1.78 Fold increase above basal
[2]; 1 nM, Rat 2 Plate 2
  Glycoconjugate Secretion: 4.1 μg glycoconjugate/mg total protein
[2]; 1 nM
  Glycoconjugate Secretion, Mean ± sem: 1.42 ± 0.37 Fold increase above basal
  Glycoconjugate Secretion, Mean ± SD: 4.1 ± 0 μg glycoconjugate/mg total protein
[2]; 10 nM, Rat 1
  Glycoconjugate Secretion: 1.56 Fold increase above basal
[2]; 10 nM, Rat 1 Plate 1
  Glycoconjugate Secretion: 11.3 μg glycoconjugate/mg total protein
[2]; 10 nM, Rat 1 Plate 2
  Glycoconjugate Secretion: 3.5 μg glycoconjugate/mg total protein
[2]; 10 nM, Rat 2
  Glycoconjugate Secretion: 1.30 Fold increase above basal
[2]; 10 nM, Rat 2 Plate 2
  Glycoconjugate Secretion: 3.0 μg glycoconjugate/mg total protein
[2]; 10 nM, Rat 3
  Glycoconjugate Secretion: 1.24 Fold increase above basal
[2]; 10 nM, Rat 3 Plate 1
  Glycoconjugate Secretion: 6.1 μg glycoconjugate/mg total protein
[2]; 10 nM, Rat 4
  Glycoconjugate Secretion: 0.85 Fold increase above basal
[2]; 10 nM, Rat 4 Plate 2
  Glycoconjugate Secretion: 8.4 μg glycoconjugate/mg total protein
[2]; 10 nM
  Glycoconjugate Secretion, Mean ± sem: 1.30 ± 0.25 Fold increase above basal
  Glycoconjugate Secretion, Mean ± SD: 6.5 ± 3.5 μg glycoconjugate/mg total protein
[2]; 0.1, 1 and 10 nM, not dose-dependent
  increase in mucin secretion: ~1.4 fold
[3]
  MAPK activity above basal: 6.1±0.7 fold
